Experimental data from the supplement of paper PMC10307832.

How the values were obtained:
Assay in all cases: relative viability (nuclei count vs DMSO), 5 days (fraction); higher = more cells survive
VE-821 + Linsitinib = compound: CS(=O)(=O)c1ccc(-c2cnc(N)c(C(=O)Nc3ccccc3)n2)cc1 [VE-821] + C[C@]1(O)C[C@@H](c2nc(-c3ccc4ccc(-c5ccccc5)nc4c3)c3c(N)nccn32)C1 [Linsitinib] (partner 1 µM)
Summary of the method: (§1)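 A single step with final 0.05% Triton X-100, 1% formaldehyde and 1 ug/ml Hoechst fixed the cells and stained nuclei 5 days after treatment. Lung cancer cell lines in 1536-well plates had been treated by pin tool the day after seeding with one drug alone or a fixed anchor-drug dose plus five library-drug doses (not always all listed) in √10 steps, and nuclei were counted on 4× images. Relative viability is the ratio of nuclei in treated wells to nuclei in vehicle wells, taken as the median of duplicate plates.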

VE-821 + Olaparib = compound: CS(=O)(=O)c1ccc(-c2cnc(N)c(C(=O)Nc3ccccc3)n2)cc1 [VE-821] + O=C(c1cc(Cc2n[nH]c(=O)c3ccccc23)ccc1F)N1CCN(C(=O)C2CC2)CC1 [Olaparib] (partner 8 µM)
Summary of the method: as §1

Vismodegib + Alpelisib = compound: CS(=O)(=O)c1ccc(C(=O)Nc2ccc(Cl)c(-c3ccccn3)c2)c(Cl)c1 [Vismodegib] + Cc1nc(NC(=O)N2CCC[C@H]2C(N)=O)sc1-c1ccnc(C(C)(C)C(F)(F)F)c1 [Alpelisib] (partner 2 µM)
Summary of the method: as §1

Vismodegib + Dasatinib = compound: CS(=O)(=O)c1ccc(C(=O)Nc2ccc(Cl)c(-c3ccccn3)c2)c(Cl)c1 [Vismodegib] + Cc1nc(Nc2ncc(C(=O)Nc3c(C)cccc3Cl)s2)cc(N2CCN(CCO)CC2)n1 [Dasatinib] (partner 0.075 µM)
Summary of the method: as §1

Cell Line	relative viability (VE-821 + Linsitinib; first compound 0.08 µM)	relative viability (VE-821 + Linsitinib; first compound 0.253 µM)	relative viability (VE-821 + Linsitinib; first compound 0.8 µM)	relative viability (VE-821 + Linsitinib; first compound 2.53 µM)	relative viability (VE-821 + Linsitinib; first compound 8 µM)	relative viability (VE-821 + Olaparib; first compound 0.08 µM)	relative viability (VE-821 + Olaparib; first compound 0.253 µM)	relative viability (VE-821 + Olaparib; first compound 0.8 µM)	relative viability (VE-821 + Olaparib; first compound 2.53 µM)	relative viability (VE-821 + Olaparib; first compound 8 µM)	relative viability (Vismodegib + Alpelisib; first compound 0.08 µM)	relative viability (Vismodegib + Alpelisib; first compound 0.253 µM)	relative viability (Vismodegib + Alpelisib; first compound 0.8 µM)	relative viability (Vismodegib + Alpelisib; first compound 2.53 µM)	relative viability (Vismodegib + Alpelisib; first compound 8 µM)	relative viability (Vismodegib + Dasatinib; first compound 0.08 µM)	relative viability (Vismodegib + Dasatinib; first compound 0.253 µM)	relative viability (Vismodegib + Dasatinib; first compound 0.8 µM)	relative viability (Vismodegib + Dasatinib; first compound 2.53 µM)	relative viability (Vismodegib + Dasatinib; first compound 8 µM)
NCI-H661	0.539	0.568	0.481	0.493	0.4	0.766	0.801	0.671	0.708	0.687	0.263	0.701	0.71	0.595	0.84	0.807	0.815	0.897	0.892	0.856
NCI-H1944	1.26	1.16	0.832	1.3	0.663	0.434	0.417	0.356	0.366	0.225	0.768	0.862	0.744	0.809	0.777	0.228	0.213	0.201	0.242	0.204
SW 1573	0.912	0.859	0.789	0.874	0.874	0.533	0.516	0.418	0.269	0.21	0.7	0.691	0.717	–	0.754	0.406	0.44	0.389	0.447	0.632
NCI-H1975	0.932	0.92	0.876	0.862	0.658	0.883	0.715	0.672	0.57	0.334	0.621	0.649	0.617	0.611	0.721	0.347	0.338	0.371	0.267	0.348
EPLC-272H	1.28	0.928	1.22	1.6	1.11	0.949	0.829	0.504	0.608	0.255	0.894	0.888	0.872	1	0.931	0.362	0.367	0.397	0.327	0.312
EMC-BAC-2	0.881	0.817	0.849	0.852	0.841	0.606	0.495	0.559	0.46	0.383	0.716	0.763	0.819	0.732	0.754	0.334	0.365	0.285	0.353	0.317
PC-3 [JPC-3]	0.923	0.932	1.05	1.07	1.01	1.19	1.15	1.24	1.12	0.958	0.971	1.04	1.04	0.941	0.972	0.947	0.985	1.03	0.974	0.924
NCI-H1666	0.765	0.884	0.777	0.857	0.553	0.758	0.742	0.839	0.944	0.79	0.913	0.879	0.813	1.01	1.13	0.73	0.777	0.816	0.841	0.734
NCI-H1915	1.09	1.16	1.13	1.18	0.972	0.274	0.274	0.201	0.202	0.152	0.996	1.09	1.07	1.03	1.12	0.346	0.296	0.295	0.266	0.326
HCC-15	1.01	0.816	0.954	0.961	0.889	0.77	0.703	0.894	0.735	0.558	0.894	0.822	0.871	0.866	0.83	0.631	0.58	0.582	0.66	0.585
EKVX	1.2	0.893	0.643	0.932	0.681	0.863	0.837	0.813	0.783	0.736	0.946	0.974	0.907	0.871	0.875	0.491	0.561	0.604	0.576	0.526
NCI-H1792	0.55	0.711	0.438	0.553	0.421	0.632	0.507	0.364	0.417	0.201	0.608	0.687	0.615	0.667	0.647	0.697	0.726	0.673	0.505	0.655
PC-14	1.02	0.911	0.95	1.02	0.971	0.292	0.282	0.167	0.137	0.097	0.884	0.888	1.03	0.907	0.926	0.25	0.235	0.27	0.225	0.244
NCI-H650	0.959	0.843	0.863	0.949	0.714	0.44	0.432	0.422	0.482	0.439	1.1	1.14	1.14	1.04	1.17	0.507	0.43	0.358	0.438	0.441
NCI-H1355	0.803	0.789	0.654	0.767	0.56	0.822	0.719	0.66	0.716	0.351	0.902	0.882	0.838	0.853	0.787	0.686	0.723	0.591	0.771	0.689
HOP-62	0.838	0.911	0.933	1.23	0.873	0.375	0.477	0.418	0.212	0.252	0.92	0.906	0.978	0.919	1.12	0.663	0.694	0.609	0.683	0.683
NCI-H3122	1.06	0.955	0.989	1.05	0.967	0.622	0.495	0.432	0.378	0.221	0.798	0.726	0.816	0.78	0.629	0.871	0.823	0.811	0.862	0.867
NCI-H1437	1.2	1.08	0.927	0.997	0.558	0.66	0.739	0.628	0.525	0.386	0.972	0.901	1.06	0.961	0.987	0.313	0.372	0.402	0.328	0.377
BEN	0.967	0.871	0.793	0.911	0.753	1.17	1.01	0.902	0.768	1.08	1.03	0.988	0.863	0.984	1.02	0.385	0.399	0.337	0.315	0.296
NCI-H520	1.09	0.931	–	1.03	0.755	0.321	0.386	0.307	0.275	0.228	0.917	0.938	0.988	0.896	0.987	0.191	0.202	0.188	0.166	0.203
NCI-H2087	1.18	0.873	1.23	1.05	0.864	0.784	0.64	0.67	0.583	0.462	1.02	1.07	1.05	1	0.995	0.98	0.769	0.812	0.94	0.69
NCI-H2347	1.02	1.05	1.07	1.21	1.06	0.574	0.531	0.598	0.618	0.635	0.966	0.994	0.91	1.02	1.1	0.281	0.35	0.331	0.272	0.293
NCI-H838	1.13	0.992	0.913	1.11	0.913	0.866	0.856	0.765	0.638	0.365	0.904	0.952	1.09	0.978	1.02	0.213	0.275	0.303	0.285	0.319
LXF-289	0.992	0.945	1.06	1.1	1.07	1.3	1.05	1.24	1.37	0.903	1	0.993	1.07	0.994	1.04	0.237	0.214	0.202	0.286	0.26
LC-2-ad	0.88	0.764	0.821	0.925	0.661	0.714	0.709	0.725	0.592	0.519	0.894	0.909	0.859	0.818	0.918	0.677	0.568	0.467	0.482	0.557
NCI-H2085	0.979	0.891	0.847	0.941	0.926	0.774	0.747	0.844	–	0.694	0.899	0.841	0.992	0.931	0.962	0.26	0.244	0.22	0.217	0.213
